Data set [1] can be described thus: HCA Crystallization, freeze/thaw temperature cycling. The data set is classed as physicochemical. Conditions: Table 7; hydrotrope at stated level in 0.5% 4-HCA composition, formula pH 3.8. An excerpt: This method provides a way to determine HCA solubility in a composition by observing HCA crystals in situ. The method involves cycling the temperature of a test sample between freezing and thawing to imitate environmental conditions experienced by a skin care composition at an accelerated rate. This type of accelerated aging is commonly used in cosmetic product stability testing. HCA crystals can be detected using conventional means such as visual observation and microscopy.
A bulk sample of at least 10 g (e.g., 20 g-60 g) of the composition to be tested is placed in a suitable container that enables visual observation of the test sample (e.g., transparent plastic or glass jar). The test sample is subjected to 1 month of freeze/thaw temperature cycling to simulate environmental conditions that a skin care product may experience during shipping and storage. This is sometimes referred to as accelerated aging. The temperature cycling involves a 1-week freeze cycle at −7° C., followed by a 1-week thaw cycle at 25° C., and then repeating this freeze/cycle for a total temperature cycling time of 1 month.
Upon completion of the accelerated aging process (i.e., 1 month of temperature cycling), transparent test samples are visually inspected in-situ in the transparent container to determine if HCA crystallization/precipitation occurred. For opaque and translucent samples, the entire test sample is removed from the container and transferred to a suitable transparent substrate (e.g., plastic film or glass plate) and formed into a thin film of no more than 1 mm thickness. The sample is covered with a second transparent substrate to inhibit the loss of volatile ingredients during inspection. A light source (e.g., LED lamp or the like) is used to backlight the sample to aid in visual inspection. HCA crystals will generally appear as a precipitate in the composition visible to the naked eye when observed by someone with 20/20 vision from 45 cm away. Any precipitate identified during visual observation may be further evaluated using a microscope capable of providing fluorescent birefringence observation with cross-polarized light to identify anisotropic crystals. Any anisotropic crystal that has a longest dimension of greater than 0.1 mm is identified as an HCA crystal and the total number of HCA crystals is recorded. A test sample that contains no more than 1 HCA crystal is considered to be “free of HCA crystals” and is recorded as a “pass.” A test sample that contains more than 1 HCA crystal, is recorded as a “fail.”
While it is desirable to formulate HCA containing compositions at lower pH to reduce 4-VP production and yellowing, the solubility of the HCA at low pH may not be sufficient for it to be added at levels needed for an effective skin care active.
The test compositions shown in Table 8 were subjected to 2 freeze/thaw cycles at −7C/25C for 1 week/1 week, totaling one month of temperature cycling.
The test compositions are shown below in Table 9. The test compositions were subjected to 2 freeze/thaw cycles at −7C/25C and 1 week/1 week, followed by a 90-day rest period at 25° C. After completion of the incubation period, the compositions were examined for the presence of HCA crystals, as described above.

For data set [2] the following is noted: Table 7, hydrotropes; cited from earlier work.
The nature of data set [3]: Color method: change in yellowness (Δb*) after accelerated aging. It counts as physicochemical. An excerpt: This method can be used to determine the change in color of a product, material, or target portion of skin. A spectrophotometer (e.g., Spectrophotometer CM-3600A, Konica Minolta, Japan, or equivalent) is used to measure spectrometric data for CIE (International Commission on Illumination) specified illuminating and viewing conditions, and compute the associated tristimulus values, XYZ, based on CIE observer and a CIE illuminant standards. The ASTM standard for obtaining spectrometric data for Object-Color Evaluation is ASTM E1164-12(2017)el with the values and procedures for computing CIE tristimulus values from spectrometric data outlined in ASTM […]. The CIELAB color scale, also referred to as L*a*b*, are calculated from the tristimulus values as defined in ASTM […]. The L* denotes the sample's perceptual lightness. […] Portion samples are evaluated using a 10 mm path length in a plastic cell (e.g., CM-A131, Konica Minolta, Japan or equivalent), reflectance measurement, a 25.4 mm aperture opening at the specimen surface, and specular component excluded conditions with a standard white background. […] Synergy factor is calculated by dividing the observed value by the expected value. […]

Each structure is given as a SMILES string.

On to `O=C(O)c1cccc(O)c1O` [2,3-Dihydroxybenzoic acid], for which, in data set [1], the Crystallization entry was “Pass (A test sample that contains no more than 1 HCA crystal is considered to be “free of HCA crystals” and is recorded as a “pass.”)”. Further, the pKA in data set [2] is reported as 2.56.
For the molecule `O=C(O)c1ccc(O)cc1O` [2,4-Dihydroxybenzoic Acid], the Crystallization entry in data set [1] is “Pass (A test sample that contains no more than 1 HCA crystal is considered to be “free of HCA crystals” and is recorded as a “pass.”)”.
Consider `O=C(O)c1ccc(O)c(O)c1` [3,4-Dihydroxybenzoic Acid, reference compound], for which the Crystallization result in data set [1] is “Fail (A test sample that contains more than 1 HCA crystal, is recorded as a “fail.”)”. Further, in data set [2], the pKA is reported as 4.16.
For `COc1cccc(C(=O)O)c1O` [3-Methoxysalicylic acid], the Crystallization result in data set [1] is “Pass (A test sample that contains no more than 1 HCA crystal is considered to be “free of HCA crystals” and is recorded as a “pass.”)”. Further, the pKA in data set [2] is recorded as 2.55.
On to `O=C([O-])C=Cc1ccccc1.[Na+]` [Sodium Cinnamate, reference compound], for which the Crystallization result in data set [1] is on record as “Fail (A test sample that contains more than 1 HCA crystal, is recorded as a “fail.”)”.
Take `O=C([O-])c1ccccc1O.[Na+]` [Sodium salicylate]: in data set [1], the Crystallization result was “Pass (A test sample that contains no more than 1 HCA crystal is considered to be “free of HCA crystals” and is recorded as a “pass.”)”.
`O=S([O-])S(=O)(=O)[O-].[Na+].[Na+]` [sodium metabisulfite]: the “enhancement of effect of the oxygen quenching reducing agent at low pH vs. neutral pH” value in data set [3] (3M40C) is reported as 240%; in data set [3] (3W50C (printed 3WSOC)), 20%.

The record behind these values is US12280132B2, “Skin care composition” (The Procter & Gamble Company, priority 2021, dated 2025).
